Measurements: patent publication US20130302442A1, “METHODS OF USING (4S,4AS,5AR,12AS)-4-DIMETHYLAMINO-3,10,12,12A-TETRAHYDROXY-7-[(METHOXY(METHYL)AMINO)-METHYL]-1,11-DIOXO-1,4,4A,5,5A,6,11,12A-OCTAHYDRO-NAPHTHACENE-2-CARBOXYLIC ACID AMIDE” (priority 2012, published 2013)
≈ marks a conversion by molar mass, not a printed value. Read-outs that look alike come from different tables or passages of the source.

Experiments:
[1] = tested on: Staphylococcus aureus; test: Inhibition of macromolecular synthesis in Staphylococcus aureus (whole-cell assay); type: cell-based; conditions: S. aureus, at 8-fold the MIC
[2] = tested on: bacterial protein synthesis (synthesis of reporter protein); test: In vitro cell-free bacterial transcription and translation assay; type: biochemical; conditions: cell-free bacterial transcription and translation assay (Promega); read-out: IC50, inhibition of the synthesis of reporter protein
[3] = tested on: Bifidobacterium infantis; test: In vitro MIC testing against anaerobic bacteria; type: cell-based; conditions: ATCC15702; Bifidobacterium infantis 3966, ATCC 15702
[4] = tested on: Helicobacter pylori; test: In vitro MIC against multiple isolates of H. pylori; type: cell-based; conditions: for MIC: read-out: MIC
[5] = tested on: Chlamydia pneumoniae; test: Susceptibility testing (MIC, MBC) of 10 isolates of C. pneumoniae in HEp-2 cells; type: cell-based
[6] = tested on: Streptococcus constellatus; test: In vitro MIC testing against anaerobic bacteria; type: cell-based
[7] = tested on: P. acnes; test: In vitro MIC testing, antibacterial spectrum of activity; type: cell-based, Propionibacterium acnes; conditions: for MIC50: read-out: MIC50; for MIC90: read-out: MIC90
[8] = tested on: Prevotella spp.; test: In vitro MIC testing against anaerobic bacteria; type: cell-based
[9] = tested on: Lactobacillus plantarum; test: In vitro MIC testing against anaerobic bacteria; type: cell-based; conditions: Lactiplantibacillus plantarum, ATCC39268; Lactobacillus plantarum 2791, ATCC 39268
[10] = tested on: hospital-associated methicillin-resistant S. aureus (MRSA-HA); test: In vitro MIC against isolates of MRSA-HA; type: cell-based, Staphylococcus aureus; conditions: MRSA-HA (33 isolates)
[11] = tested on: methicillin-sensitive S. aureus (MSSA); test: In vitro MIC against isolates of MSSA; type: cell-based, Staphylococcus aureus
[12] = tested on: Chlamydia trachomatis; test: Susceptibility testing (MIC, MBC) of 10 isolates of C. trachomatis in HEp-2 cells; type: cell-based
[13] = tested on: community-acquired methicillin-resistant S. aureus (MRSA-CA); test: In vitro MIC against isolates of MRSA-CA; type: cell-based, Staphylococcus aureus
[14] = tested on: Chlamydia trachomatis; test: In vitro susceptibility testing of Chlamydia trachomatis in HEp-2 cells (first study); type: cell-based; conditions: C. trachomatis strains
[15] = tested on: Salmonella Spp.; test: In vitro MIC testing, antibacterial spectrum of activity; type: cell-based; conditions: Salmonella
[16] = tested on: E. cloacae; test: as above; type: cell-based; conditions: Enterobacter cloacae; E. cloacae (30 isolates)
[17] = tested on: Eikenella corrodens; test: In vitro MIC testing against anaerobic bacteria; type: cell-based; conditions: ATCC43278; Eikenella corrodens 1206, ATCC 43278; read-out: MIC
[18] = tested on: Bacteroides ovatus; test: In vitro MIC testing against anaerobic bacteria; type: cell-based
[19] = tested on: S. aureus; test: In vitro MIC testing, antibacterial spectrum of activity; type: cell-based, Staphylococcus aureus; conditions: for MIC50 / MIC90 / MIC: Staphylococcus aureus; for MIC50: read-out: MIC50; for MIC90: read-out: MIC90
[20] = tested on: Bacteroides vulgatus; test: In vitro MIC testing against anaerobic bacteria; type: cell-based
[21] = Cutibacterium acnes, P. acnes [clinical isolates] (55 isolates)
[22] = Cutibacterium acnes, P. acnes [tetS] (13 isolates)
[23] = Staphylococcus aureus, MRSA-CA (33 isolates)
[24] = MRSA, S. aureus [MRSA] (31 isolates)
[25] = MSSA, S. aureus [MSSA] (32 isolates)

`CON(C)Cc1ccc(O)c2c1C[C@H]1C[C@H]3[C@H](N(C)C)C(O)=C(C(N)=O)C(=O)[C@@]3(O)C(O)=C1C2=O` [The Active, (4S,4aS,5aR,12aS)-4-dimethylamino-3,10,12,12a-tetrahydroxy-7-[(methoxy(methyl)amino)-methyl]-1,11-dioxo-1,4,4a,5,5a,6,11,12a-octahydro-naphthacene-2-carboxylic acid amide] was tested, and the “inhibition of the synthesis of cell wall, DNA, RNA and lipid components” value [1] was “less than 20%”, the “maximum inhibition of incorporation of [3H]-leucine into proteins” value [1] was 80% and the IC50 [2] was 8.3 ± 0.18 µM. The MIC [3] was 0.5 µg/mL (≈ 1.03 µM), the “MIC Range” value ([4]; H. pylori clinical isolate summary) was 1 to 8 µg/mL and the “concentration inhibiting 12 out of 13 strains” value ([4]; H. pylori, 12 out of 13 strains) was 1 to 2 µg/mL. The “concentration inhibiting all test strains” value ([4]; H. pylori, all 13 test strains) was ≤ 8 µg/mL, the MIC ([4]; Helicobacter pylori, ATCC43504, H. pylori reference strain, culture No. 3718, ATCC 43504) was 2 µg/mL (≈ 4.1 µM) and the MIC ([4]; Helicobacter pylori, ATCC700824, H. pylori reference strain, culture No. 3719, ATCC 700824) was 2 µg/mL (≈ 4.1 µM). The MIC ([4]; Helicobacter pylori, ATCCBAA945, H. pylori reference strain, culture No. 3720, ATCC BAA-945) was 1 µg/mL (≈ 2.05 µM), the MIC ([4]; Helicobacter pylori, H. pylori clinical isolate, culture No. 4368) was 2 µg/mL (≈ 4.1 µM) and the MIC ([4]; Helicobacter pylori, H. pylori clinical isolate, culture No. 4369) was 8 µg/mL (≈ 16.4 µM). The MIC ([4]; Helicobacter pylori, H. pylori clinical isolate, culture No. 4370) was 2 µg/mL (≈ 4.1 µM), the MIC ([4]; Helicobacter pylori, H. pylori clinical isolate, culture No. 4371) was 2 µg/mL (≈ 4.1 µM) and the MIC ([4]; Helicobacter pylori, H. pylori clinical isolate, culture No. 4372) was 1 µg/mL (≈ 2.05 µM). For the same compound, the MIC ([4]; Helicobacter pylori, H. pylori clinical isolate, culture No. 4374) was 2 µg/mL (≈ 4.1 µM), the MIC ([4]; Helicobacter pylori, H. pylori clinical isolate, culture No. 4375) was 2 µg/mL (≈ 4.1 µM) and the MIC ([4]; Helicobacter pylori, H. pylori clinical isolate, culture No. 4377) was 1 µg/mL (≈ 2.05 µM). The MIC ([4]; Helicobacter pylori, H. pylori clinical isolate, culture No. 4503) was 2 µg/mL (≈ 4.1 µM), the MIC ([4]; Helicobacter pylori, H. pylori clinical isolate, culture No. 4504) was 1 µg/mL (≈ 2.05 µM) and the MIC90 ([4]; Helicobacter pylori, H. pylori, MIC for 90% of clinical test isolates, read-out: MIC90) was 2 µg/mL (≈ 4.1 µM). For the same compound, the MIC50 ([4]; Helicobacter pylori, read-out: MIC50) was 2 µg/mL (≈ 4.1 µM), the “MIC 90%” value ([5]; 72 h) was 0.5 µg/mL (≈ 1.03 µM) and the “MIC Range” value ([5]; 72 h) was 0.125 to 0.5 µg/mL. The MIC50 ([5]; Chlamydia pneumoniae, 72 h) was 0.25 µg/mL (≈ 0.513 µM), the MIC90 ([5]; Chlamydia pneumoniae, 72 h) was 0.5 µg/mL (≈ 1.03 µM) and the MBC ([5]; Chlamydia pneumoniae, after passage, read-out: MBC 90%) was 0.25 µg/mL (≈ 0.513 µM). For the same compound, the “MBC 90%” value ([5]; after passage) was 0.25 µg/mL (≈ 0.513 µM), the “MBC Range” value ([5]; after passage) was 0.125 to 0.5 µg/mL and the MIC ([6]; ATCC27823, Streptococcus constellatus 1202, ATCC 27823, read-out: MIC) was 32 µg/mL (≈ 65.6 µM). The MIC ([6]; Streptococcus constellatus, S. constellatus, summary of Table 1, read-out: MIC, high MIC values) was > 16 µg/mL, the MIC ([7]; Cutibacterium acnes) was > 8 µg/mL and the MIC50 [7, 21] was 0.5 µg/mL (≈ 1.03 µM). It also gave an MIC90 [7, 21] of 4 µg/mL (≈ 8.2 µM), an MIC50 [7, 22] of 0.5 µg/mL (≈ 1.03 µM) and an MIC90 [7, 22] of 2 µg/mL (≈ 4.1 µM). The “MIC Range” value ([7]; P. acnes [clinical isolates] (55 isolates)) was 0.5 to 16 µg/mL, the “MIC Range” value ([7]; P. acnes [tetS] (2 isolates)) was 0.25 to 1 µg/mL and the “MIC Range” value ([7]; P. acnes [tetS] (13 isolates)) was 0.25 to 4 µg/mL. For the same compound, the MIC ([8]; Prevotella spp. 3564) was 4 µg/mL (≈ 8.2 µM), the MIC ([8]; Prevotella spp. 3568) was 2 µg/mL (≈ 4.1 µM) and the MIC [9] was 2 µg/mL (≈ 4.1 µM). For the same compound, the “MIC Range” value [10] was 0.25 to 0.5 µg/mL, the MIC50 ([10]; Staphylococcus aureus) was 0.25 µg/mL (≈ 0.513 µM) and the MIC90 ([10]; Staphylococcus aureus) was 0.5 µg/mL (≈ 1.03 µM). For the same compound, the MIC90 ([11]; MSSA (34 isolates)) was 1.0 µg/mL (≈ 2.05 µM), the “MIC Range” value ([11]; MSSA (34 isolates)) was 0.25 to 16 µg/mL and the MIC50 ([11]; Staphylococcus aureus, MSSA (34 isolates)) was 0.25 µg/mL (≈ 0.513 µM). For the same compound, the MIC90 ([11]; Staphylococcus aureus, MSSA (34 isolates), read-out: MIC90) was 1 µg/mL (≈ 2.05 µM), the MIC ([11]; Staphylococcus aureus, single strain of doxycycline-resistant MSSA) was 16 µg/mL (≈ 32.8 µM) and the “MIC 90%” value ([12]; 72 h) was 0.125 µg/mL (≈ 0.256 µM). The “MIC Range” value ([12]; 72 h) was 0.03 to 0.125 µg/mL, the MIC50 ([12]; Chlamydia trachomatis, 72 h) was 0.06 µg/mL (≈ 0.123 µM) and the MIC90 ([12]; Chlamydia trachomatis, 72 h) was 0.125 µg/mL (≈ 0.256 µM). For the same compound, the MBC ([12]; Chlamydia trachomatis, after passage, read-out: MBC 90%) was 0.125 µg/mL (≈ 0.256 µM), the “MBC 90%” value ([12]; after passage) was 0.125 µg/mL (≈ 0.256 µM) and the “MBC Range” value ([12]; after passage) was 0.03 to 0.125 µg/mL. The “MIC Range” value ([13]; MRSA-CA (33 isolates)) was 0.12 to 8 µg/mL, the MIC50 [13, 23] was 0.25 µg/mL (≈ 0.513 µM) and the MIC90 [13, 23] was 0.5 µg/mL (≈ 1.03 µM). The MIC ([13]; Staphylococcus aureus, single strain of doxycycline-resistant MRSA-CA) was 8 µg/mL (≈ 16.4 µM), the MIC Range [14] was 0.06 to 0.125 µg/mL and the MIC90 ([14]; Chlamydia trachomatis, read-out: MIC at which 90% of the strains were inhibited (MIC90)) was 0.125 µg/mL (≈ 0.256 µM). For the same compound, the MBC ([14]; Chlamydia trachomatis, read-out: minimum bactericidal concentration at which 90% of the strains were inhibited (MBC90)) was 0.125 µg/mL (≈ 0.256 µM), the MIC90 [15] was > 64 µg/mL and the MIC50 [16] was 32 µg/mL (≈ 65.6 µM). The MIC90 [16] was > 64 µg/mL, the MIC [17] was 1 µg/mL (≈ 2.05 µM) and the MIC [18] was 0.25 µg/mL (≈ 0.513 µM). The MIC ([18]; Bacteroides ovatus 3503, read-out: MIC) was 8 µg/mL (≈ 16.4 µM), the “MIC Range” value ([19]; S. aureus [MRSA] (31 isolates)) was 0.25 to 4 µg/mL and the “MIC Range” value ([19]; S. aureus [MSSA] (32 isolates)) was 0.25 to 16 µg/mL. For the same compound, the “MIC Range” value ([19]; S. aureus [tetR] (10 isolates)) was 0.125 to 32 µg/mL, the “MIC Range” value ([19]; S. aureus [tetS] (20 isolates)) was “≦0.06-0.25 μg/mL” and the MIC50 [19, 24] was 0.25 µg/mL (≈ 0.513 µM). For the same compound, the MIC90 [19, 24] was 0.5 µg/mL (≈ 1.03 µM), the MIC50 [19, 25] was 0.5 µg/mL (≈ 1.03 µM) and the MIC90 [19, 25] was 0.5 µg/mL (≈ 1.03 µM). It also gave an MIC50 ([19]; S. aureus [tetR] (10 isolates)) of 4 µg/mL (≈ 8.2 µM), an MIC90 ([19]; S. aureus [tetR] (10 isolates)) of 16 µg/mL (≈ 32.8 µM) and an MIC50 ([19]; S. aureus [tetS] (20 isolates)) of 0.125 µg/mL (≈ 0.256 µM). It also gave an MIC90 ([19]; S. aureus [tetS] (20 isolates)) of 0.25 µg/mL (≈ 0.513 µM), an MIC ([19]; S. aureus strain PBS # 1309, tetK) of 0.5 µg/mL (≈ 1.03 µM) and an MIC ([19]; S. aureus strain PBS # 1310, tetM) of 8 µg/mL (≈ 16.4 µM). The MIC ([19]; S. aureus strain PBS # 1739, tet38) was 4 µg/mL (≈ 8.2 µM), the MIC ([20]; Bacteroides vulgatus 3494) was 16 µg/mL (≈ 32.8 µM) and the MIC ([20]; Phocaeicola vulgatus) was 16 µg/mL (≈ 32.8 µM).
